Data on one compound can be found in patent US20240277737A1, “METHOD FOR GENERATING DRY POWDER SUITABLE FOR INHALATION ADMINISTRATION OF ANTIMICROBIAL PHOSPHOLIPID COMPOSITIONS” (Celestial Therapeutics, Inc., priority 2021, published 2024).

In series [1] the test system is Toll-like receptor 4 (TLR4) interacting proteins CD14 and MD-2. To be noted: cited from earlier work.
Series [2] in a line: particle size distribution by Sympatec laser particle sizer (RODOS/ASPIROS, 3 bar). To be noted: raw material, R5 lens. The class given is physicochemical. The protocol: The Particle Size Distribution analysis was performed at 3 bar dispersion pressure using a Sympatec laser Particle Sizer equipped with RODOS/ASPIROS dispersion unit and an R5 lens.
The particle size analysis of the spray dried powders was performed at 3 bar dispersion pressure using a Sympatec laser Particle Sizer equipped with RODOS/ASPIROS dispersion unit and an R3 lens (n=2) and is summarised in Table 13 and in FIG. 19-FIG. 21. The PSD of spray dried powders decreased with increasing atomisation pressure and reducing outlet temperature during the spray drying manufacture.
The PSD analysis performed on 174 #003A-01 & 174 #003B-01 following storage at −20° C. was repeat-ed.
The spray dried product 174 #005A-01 was vacuum dried for 24 hours at 25° C. with a maximum pressure ˜0.1 mbar. After the 24 hours, the PSD of this product was evaluated. Post vacuum drying, increased amounts of aggregated material were observed and as a result the Dv90 increased.
Based on the PSD results after the storage, an aliquot of the formulation 174 #005A-01, that was stored at −20° C. for 4 weeks, was taken out from the freezer, transferred in sealed container and equilibrated for 5 hours at ambient temperature (20 C-25 C, <30% RH) in a sealed vial.
The 174 #010A-01 post vacuum drying was separated in different aliquot and stored at 2-8° C. and at −20° C. The PSD and DSC of the spray dried powder was evaluated through time. The spray dried powder was removed from the storage condition an equilibrated at low RH for 5 hours (19° C. and 28% RH) before to perform any test. […]
The particle size distribution of the micronized sample was determined by laser particle size analysis using an R1 (0.1-35.0 μm range) & R3 lens (0.5-175.0 μm range) at 3 bar dispersal pressure at T-0 and after T=7 days after storage of the sample at −20° C. […] There was a slight discrepancy between the two lenses, with the trace of the material measured using the R1 lens appearing larger and very slightly bimodal which wasn't apparent in the trace measured using an R3 lens. […]

Series [3] has as its system Respiratory Syncytial Virus (RSV). To be noted: bronchial epithelial cells; cited from earlier work.
Series [4] can be described thus: solubility screening for API spray drying (organic solvents). In kind it is physicochemical. Here is the method:
The solubility of the surfactant was investigated to identify a suitable solvent system in which the surfactants can be solubilized to process the material by spray drying.
The class III solvents were preferred to the class II solvents because the […] and of lower risk to human health. The solubility of the POPG using class III solvent was lower than 0.5 mg/mL. For this reason, Class II solvents were investigated. The highest solubility was obtained with a mixture DCM/Methanol 5:1 v/v and it will be used as a vehicle for the spray drying process.

In brackets after ≈: the same amount, converted by molar mass.

In the case of `CCCCCCCC/C=C\CCCCCCCC(=O)O[C@H](COC(=O)CCCCCCCCCCCCCCC)COP(=O)(O)OCC(O)CO` (mixture of isomers) [POPG, 1-Palmitoy-2-loleoyl-sn-glycerol-3-phospho-(1′-rac-glycerol)], the “inflammatory responses induced by lipopolysaccharide” value in series [1] is “markedly attenuate”. Further, the VMD in series [2] is on record as 59.05 ± 13.17 μm. The compound also yielded an X10 in series [2] of 1.80 ± 0.07 μm. Also, the X50 in series [2] is 12.65 ± 4.65 μm. Besides, the “cytopathic effects induced by RSV” value in series [3] is reported as “significantly inhibited”. Further, in series [3], the interleukin-6 production result was “significantly inhibited”. Also, in series [3], the interleukin-8 production entry is on record as “significantly inhibited”. The Solubility is <500 µg/mL in series [4] (Acetone); 16700 µg/mL (≈ 22300 µM) in series [4] (Chloroform); <500 µg/mL in series [4] (Cycloexhane); ~70000 µg/mL (≈ 93500 µM) in series [4] (DCM/ Methanol 5:1 v/v); <500 µg/mL in series [4] (Dichloromethane (DCM)); 500 µg/mL (≈ 668 µM) in series [4] (Dimethyl sulfoxide (DMSO)). In addition, the Solubility in series [4] (Dimethylformamide (DMF)) was <500 µg/mL; in series [4] (Ethanol (96%)), 500 µg/mL (≈ 668 µM); in series [4] (Ethyl Acetate), <500 µg/mL; in series [4] (Heptane), <500 µg/mL; in series [4] (Isopropanol (IPA)), <500 µg/mL; in series [4] (Methanol), 1350 µg/mL (≈ 1800 µM). Further, in series [4] (class III solvent), the Solubility result is given as “lower than 0.5 mg/mL”.

A word on the Solubility: it is how much of the substance goes into solution per volume. Low readings indicate little dissolved substance, high ones much dissolved substance.
